Laboratory results reported in US11434242B2, “Dopamine-b-hydroxylase inhibitors” (BIAL-PORTELA & Cª, S.A., priority 2017, dated 2022).

Target: T1, Dopamine beta hydroxylase (Homo sapiens, UniProt P09172)
T1 construct: 125 μl of plasma; tissue Instituto Português do Sangue Transplantação; host or cells: human plasma from healthy donors
T1 sequence (P09172 40-617 limits assumed): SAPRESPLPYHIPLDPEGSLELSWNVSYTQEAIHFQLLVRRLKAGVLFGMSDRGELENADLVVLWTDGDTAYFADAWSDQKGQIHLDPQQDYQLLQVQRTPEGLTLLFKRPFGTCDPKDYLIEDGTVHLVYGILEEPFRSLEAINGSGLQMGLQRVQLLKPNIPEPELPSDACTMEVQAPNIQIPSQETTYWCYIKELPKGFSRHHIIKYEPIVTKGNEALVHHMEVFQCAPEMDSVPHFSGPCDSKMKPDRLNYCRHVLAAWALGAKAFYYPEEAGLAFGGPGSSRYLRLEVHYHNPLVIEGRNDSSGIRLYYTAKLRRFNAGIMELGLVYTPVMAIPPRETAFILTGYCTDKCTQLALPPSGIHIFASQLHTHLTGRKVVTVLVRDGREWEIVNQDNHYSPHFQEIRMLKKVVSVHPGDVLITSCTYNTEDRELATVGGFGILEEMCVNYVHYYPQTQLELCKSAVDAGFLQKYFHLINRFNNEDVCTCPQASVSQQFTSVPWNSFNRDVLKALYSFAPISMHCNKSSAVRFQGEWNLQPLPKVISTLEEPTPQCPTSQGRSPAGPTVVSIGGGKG
Test: Dopamine beta hydroxylase activity in human plasma
Assay type: biochemical
Details: for Plasma (0.1 μM), activity in % of control: inhibitor 0.1 μM; for Plasma (1 μM), activity in % of control: inhibitor 1 μM; for Plasma (0.01 μM), activity in % of control: inhibitor 0.01 μM
Outline: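 Healthy-donor human plasma pre-incubated 10 min at 37° C with compound at final 10, 100 or 1000 nM in pH 5.0 acetate buffer with ascorbate, fumarate, pargyline, N-ethylmaleimide, catalase and copper sulfate. Tyramine substrate then added for 45 min; octopamine formed was isolated by SCX cartridge, periodate-converted and read at 330 nm; activity given as % control.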

Structure (SMILES)	Plasma (0.1 μM), activity in % of control	Plasma (1 μM), activity in % of control	Plasma (0.01 μM), activity in % of control
O=C(Cc1[nH]c(=S)n2c1[C@@H]1C[C@]1(c1cc(Br)ccc1F)C2)NCCc1ccccn1 [Example 145, 2-((5aS,6aR)-5a-(5-bromo-2-fluorophenyl)-3-thioxo-2,3,5,5a,6,6a-hexahydrocyclopropa[3,4]pyrrolo[1,2-c]imidazol-1-yl)-N-(2-(pyridin-2-yl)ethyl)acetamide]	18.2 % of control	2.0 % of control	–
CN(C)CCCNC(=O)Cc1[nH]c(=S)n2c1[C@@H]1C[C@]1(c1cc(Br)ccc1F)C2.Cl [Example 146, 2-((5aS,6aR)-5a-(5-bromo-2-fluorophenyl)-3-thioxo-2,3,5,5a,6,6a-hexahydrocyclopropa[3,4]pyrrolo[1,2-c]imidazol-1-yl)-N-(3-(dimethylamino)propyl)acetamide hydrochloride]	13.8 % of control	0.9 % of control	–
O=C(Cc1[nH]c(=S)n2c1[C@@H]1C[C@]1(c1cc(Br)ccc1F)C2)N1CCN(c2ccccn2)CC1 [Example 147, 2-((5aS,6aR)-5a-(5-bromo-2-fluorophenyl)-3-thioxo-2,3,5,5a,6,6a-hexahydrocyclopropa[3,4]pyrrolo[1,2-c]imidazol-1-yl)-1-(4-(pyridin-2-yl)piperazin-1-yl)ethan-1-one]	29.0 % of control	2.4 % of control	–
O=C(Cc1[nH]c(=S)n2c1[C@@H]1C[C@]1(c1cc(Br)ccc1F)C2)NC1CCOC1 (stereo partly drawn) [Example 148, 2-((5aS,6aR)-5a-(5-bromo-2-fluorophenyl)-3-thioxo-2,3,5,5a,6,6a-hexahydrocyclopropa[3,4]pyrrolo[1,2-c]imidazol-1-yl)-N-(tetrahydrofuran-3-yl)acetamide]	17.1 % of control	0.9 % of control	–
O=C(Cc1[nH]c(=S)n2c1[C@@H]1C[C@]1(c1c(F)ccc(Cl)c1F)C2)N1CCC(F)(F)CC1 [Example 149, 2-((5aS,6aR)-5a-(3-chloro-2,6-difluorophenyl)-3-thioxo-2,3,5,5a,6,6a-hexahydrocyclopropa[3,4]pyrrolo[1,2-c]imidazol-1-yl)-1-(4,4-difluoropiperidin-1-yl)ethan-1-one]	3.0 % of control	–	52.5 % of control
O=C(Cc1[nH]c(=S)n2c1[C@@H]1C[C@]1(c1c(F)ccc(Cl)c1F)C2)NCC(F)(F)F [Example 150, 2-((5aS,6aR)-5a-(3-chloro-2,6-difluorophenyl)-3-thioxo-2,3,5,5a,6,6a-hexahydrocyclopropa[3,4]pyrrolo[1,2-c]imidazol-1-yl)-N-(2,2,2-trifluoroethyl)acetamide]	17.1 % of control	–	64.8 % of control
O=C(Cc1[nH]c(=S)n2c1[C@@H]1C[C@]1(c1c(F)ccc(Cl)c1F)C2)NCc1cccnc1 [Example 151, 2-((5aS,6aR)-5a-(3-chloro-2,6-difluorophenyl)-3-thioxo-2,3,5,5a,6,6a-hexahydrocyclopropa[3,4]pyrrolo[1,2-c]imidazol-1-yl)-N-(pyridin-3-ylmethyl)acetamide]	20.2 % of control	–	73.7 % of control
O=C(Cc1[nH]c(=S)n2c1[C@@H]1C[C@]1(c1cc(Br)ccc1F)C2)NCC(F)(F)F [Example 152, 2-((5aS,6aR)-5a-(5-bromo-2-fluorophenyl)-3-thioxo-2,3,5,5a,6,6a-hexahydrocyclopropa[3,4]pyrrolo[1,2-c]imidazol-1-yl)-N-(2,2,2-trifluoroethyl)acetamide]	17.8 % of control	–	72.1 % of control
O=C(Cc1[nH]c(=S)n2c1[C@@H]1C[C@]1(c1cc(Br)ccc1F)C2)NC1CCC1 [Example 153, 2-((5aS,6aR)-5a-(5-bromo-2-fluorophenyl)-3-thioxo-2,3,5,5a,6,6a-hexahydrocyclopropa[3,4]pyrrolo[1,2-c]imidazol-1-yl)-N-cyclobutylacetamide]	28.4 % of control	–	85.5 % of control
O=C(Cc1[nH]c(=S)n2c1[C@@H]1C[C@]1(c1cc(Br)ccc1F)C2)NC1CC1 [Example 154, 2-((5aS,6aR)-5a-(5-bromo-2-fluorophenyl)-3-thioxo-2,3,5,5a,6,6a-hexahydrocyclopropa[3,4]pyrrolo[1,2-c]imidazol-1-yl)-N-cyclopropylacetamide]	38.6 % of control	–	89.5 % of control
CN(C(=O)Cc1[nH]c(=S)n2c1[C@@H]1C[C@]1(c1cc(Br)ccc1F)C2)C1CCCC1 [Example 155, 2-((5aS,6aR)-5a-(5-bromo-2-fluorophenyl)-3-thioxo-2,3,5,5a,6,6a-hexahydrocyclopropa[3,4]pyrrolo[1,2-c]imidazol-1-yl)-N-cyclopentyl-N-methylacetamide]	19.7 % of control	–	91.5 % of control
O=C(Cc1[nH]c(=S)n2c1[C@@H]1C[C@]1(c1cc(Cl)ccc1F)C2)NCc1ccccc1 [Example 156, N-benzyl-2-((5aS,6aR)-5a-(5-chloro-2-fluorophenyl)-3-thioxo-2,3,5,5a,6,6a-hexahydrocyclopropa[3,4]pyrrolo[1,2-c]imidazol-1-yl)acetamide]	40.3 % of control	–	88.6 % of control
O=C(Cc1[nH]c(=S)n2c1[C@@H]1C[C@]1(c1cc(Br)ccc1F)C2)N1CCOCC1 [Example 157]	24.2 % of control	–	84.2 % of control
O=C(Cc1[nH]c(=S)n2c1[C@@H]1C[C@]1(c1cc(Cl)ccc1F)C2)N1CCCCC1 [Example 158, 2-((5aS,6aR)-5a-(5-chloro-2-fluorophenyl)-3-thioxo-2,3,5,5a,6,6a-hexahydrocyclopropa[3,4]pyrrolo[1,2-c]imidazol-1-yl)-1-(piperidin-1-yl)ethan-1-one]	52.1 % of control	–	90.9 % of control
N#CCNC(=O)Cc1[nH]c(=S)n2c1C[C@H](c1c(F)ccc(Br)c1F)C2 [Example 159, (R)-2-(6-(3-bromo-2,6-difluorophenyl)-3-thioxo-2,5,6,7-tetrahydro-3H-pyrrolo[1,2-c]imidazol-1-yl)-N-(cyanomethyl)acetamide]	50.9 % of control	–	84.3 % of control
O=C(Cc1[nH]c(=S)n2c1C[C@H](c1c(F)ccc(Br)c1F)C2)N[C@@H]1CCCC[C@H]1O [Example 160, 2-((R)-6-(3-bromo-2,6-difluorophenyl)-3-thioxo-2,5,6,7-tetrahydro-3H-pyrrolo[1,2-c]imidazol-1-yl)-N-((1R,2R)-2-hydroxycyclohexyl)acetamide]	50.8 % of control	–	84.7 % of control
O=C(Cc1[nH]c(=S)n2c1C[C@H](c1c(F)ccc(Br)c1F)C2)N[C@H]1CCC[C@@H]1O [Example 161, 2-((R)-6-(3-bromo-2,6-difluorophenyl)-3-thioxo-2,5,6,7-tetrahydro-3H-pyrrolo[1,2-c]imidazol-1-yl)-N-((1S,2S)-2-hydroxycyclopentyl)acetamide]	46.0 % of control	–	85.0 % of control
